Values quoted from earlier work, collected in patent publication US20110189710A1, “TREATMENT OF POMPE DISEASE WITH […] PHARMACOLOGICAL CHAPERONES AND MONITORING TREATMENT USING SURROGATE MARkERS” (AMICUS THERAPEUTICS, INC., priority 2008, published 2011).

Experiments:
[1] = tested on: α-Gal A (R301Q or Q279E) in Fabry patient lymphoblasts; conditions: lymphoblasts from Fabry patients with R301Q or Q279E mutations; cited from earlier work
mutant (R301Q) α-Gal A = target: T1, mutant (R301Q) α-Gal A (Homo sapiens, UniProt P06280, R301Q); conditions: oral administration; transgenic mice overexpressing mutant (R301Q) α-Gal A; cited from earlier work
T1 construct: host or cells: transgenic mice
T1 sequence (P06280 32-429 R301Q): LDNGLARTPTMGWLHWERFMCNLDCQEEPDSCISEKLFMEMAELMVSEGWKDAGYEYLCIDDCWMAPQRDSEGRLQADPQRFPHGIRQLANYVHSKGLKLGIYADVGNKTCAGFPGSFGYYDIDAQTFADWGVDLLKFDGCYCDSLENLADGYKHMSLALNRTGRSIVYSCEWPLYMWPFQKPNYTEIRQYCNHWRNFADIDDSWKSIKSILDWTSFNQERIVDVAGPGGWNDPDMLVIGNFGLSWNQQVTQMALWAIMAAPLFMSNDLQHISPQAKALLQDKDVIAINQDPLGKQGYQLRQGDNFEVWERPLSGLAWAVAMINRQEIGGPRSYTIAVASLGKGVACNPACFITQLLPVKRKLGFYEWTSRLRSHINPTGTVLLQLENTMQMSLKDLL

[2] = target: T2, human mutant α-Gal A (R301Q) (Homo sapiens, UniProt P06280, R301Q); conditions: neutral pH; cited from earlier work
T2 sequence (P06280 32-429 R301Q): T1 sequence (P06280 32-429 R301Q)

OC[C@H]1NC[C@H](O)[C@@H](O)[C@H]1O [DGJ, 1-deoxygalactonojirimycin]
Mutant enzyme activity in lymphoblasts [1]: enhanced the mutant enzyme activity
Enzyme activity in major organs (mutant (R301Q) α-Gal A): substantially elevated the enzyme activity
In vitro stability of mutant enzyme [2]: effectively increased in vitro stability
